Cc1c(OCC(F)(F)F)ccnc1CS(=O)c1nc2ccccc2[nH]1 (stereo unspecified)
solubility (mole fraction) (in 2-butanone, 283.15 K): 0.00289
solubility (mole fraction) (in 2-butanone, 288.15 K): 0.00349
solubility (mole fraction) (in 2-butanone, 293.15 K): 0.00412
solubility (mole fraction) (in 2-butanone, 298.15 K): 0.00489
solubility (mole fraction) (in 2-butanone, 303.15 K): 0.00578
solubility (mole fraction) (in 2-butanone, 308.15 K): 0.00697
solubility (mole fraction) (in 2-butanone, 313.15 K): 0.0083
solubility (mole fraction) (in MIBK, 283.15 K): 0.0013
solubility (mole fraction) (in MIBK, 288.15 K): 0.00154
solubility (mole fraction) (in MIBK, 293.15 K): 0.00183
solubility (mole fraction) (in MIBK, 298.15 K): 0.00216
solubility (mole fraction) (in MIBK, 303.15 K): 0.00255
solubility (mole fraction) (in MIBK, 308.15 K): 0.00307
solubility (mole fraction) (in MIBK, 313.15 K): 0.00362
solubility (mole fraction) (in acetone, 283.15 K): 0.00249
solubility (mole fraction) (in acetone, 290.15 K): 0.0031
solubility (mole fraction) (in acetone, 297.15 K): 0.00395
solubility (mole fraction) (in acetone, 304.15 K): 0.00494
solubility (mole fraction) (in acetone, 311.15 K): 0.00626
solubility (mole fraction) (in acetone, 318.15 K): 0.00801
solubility (mole fraction) (in ethyl acetate, 283.15 K): 0.00137
solubility (mole fraction) (in ethyl acetate, 288.15 K): 0.00164
solubility (mole fraction) (in ethyl acetate, 293.15 K): 0.002
solubility (mole fraction) (in ethyl acetate, 298.15 K): 0.00245
solubility (mole fraction) (in ethyl acetate, 303.15 K): 0.00291
solubility (mole fraction) (in ethyl acetate, 308.15 K): 0.00343
solubility (mole fraction) (in ethyl acetate, 313.15 K): 0.00416
solubility (mole fraction) (in ethyl acetate, 318.15 K): 0.00469
solubility (mole fraction) (in isobutyl acetate, 283.15 K): 0.000784
solubility (mole fraction) (in isobutyl acetate, 288.15 K): 0.000965
solubility (mole fraction) (in isobutyl acetate, 293.15 K): 0.00117
solubility (mole fraction) (in isobutyl acetate, 298.15 K): 0.00136
solubility (mole fraction) (in isobutyl acetate, 303.15 K): 0.00161
solubility (mole fraction) (in isobutyl acetate, 308.15 K): 0.00193
solubility (mole fraction) (in isobutyl acetate, 313.15 K): 0.00228
solubility (mole fraction) (in isopropanol, 283.15 K): 0.00082
solubility (mole fraction) (in isopropanol, 288.15 K): 0.000922
solubility (mole fraction) (in isopropanol, 293.15 K): 0.00124
solubility (mole fraction) (in isopropanol, 298.15 K): 0.00161
solubility (mole fraction) (in isopropanol, 303.15 K): 0.00202
solubility (mole fraction) (in isopropanol, 308.15 K): 0.00261
solubility (mole fraction) (in isopropanol, 313.15 K): 0.00333
solubility (mole fraction) (in isopropanol, 318.15 K): 0.00422
solubility (mole fraction) (in n-butanol, 283.15 K): 0.0012
solubility (mole fraction) (in n-butanol, 288.15 K): 0.00166
solubility (mole fraction) (in n-butanol, 293.15 K): 0.00215
solubility (mole fraction) (in n-butanol, 298.15 K): 0.0027
solubility (mole fraction) (in n-butanol, 303.15 K): 0.00336
solubility (mole fraction) (in n-butanol, 308.15 K): 0.00419
solubility (mole fraction) (in n-butanol, 313.15 K): 0.00515
solubility (mole fraction) (in n-butyl acetate, 283.15 K): 0.000987
solubility (mole fraction) (in n-butyl acetate, 288.15 K): 0.0012
solubility (mole fraction) (in n-butyl acetate, 293.15 K): 0.00144
solubility (mole fraction) (in n-butyl acetate, 298.15 K): 0.00172
solubility (mole fraction) (in n-butyl acetate, 303.15 K): 0.00195
solubility (mole fraction) (in n-butyl acetate, 308.15 K): 0.00232
solubility (mole fraction) (in n-butyl acetate, 313.15 K): 0.00271
solubility (mole fraction) (in n-pentanol, 283.15 K): 0.00138
solubility (mole fraction) (in n-pentanol, 288.15 K): 0.00184
solubility (mole fraction) (in n-pentanol, 293.15 K): 0.00227
solubility (mole fraction) (in n-pentanol, 298.15 K): 0.00281
solubility (mole fraction) (in n-pentanol, 303.15 K): 0.00344
solubility (mole fraction) (in n-pentanol, 308.15 K): 0.00412
solubility (mole fraction) (in n-pentanol, 313.15 K): 0.00518
solubility (mole fraction) (in n-propanol, 283.15 K): 0.00166
solubility (mole fraction) (in n-propanol, 288.15 K): 0.00206
solubility (mole fraction) (in n-propanol, 293.15 K): 0.0026
solubility (mole fraction) (in n-propanol, 298.15 K): 0.00314
solubility (mole fraction) (in n-propanol, 303.15 K): 0.00388
solubility (mole fraction) (in n-propanol, 308.15 K): 0.00468
solubility (mole fraction) (in n-propanol, 313.15 K): 0.00588

— BigSolDB 2.1
